Results published in patent US20240199611A1, “ANTIBACTERIAL COMPOUNDS” (JANSSEN SCIENCES IRELAND UNLIMITED COMPANY, priority 2021, published 2024).
Where two headings read alike, the source gives them in different places.

Assays:
[1] = tested on: Mycobacterium tuberculosis strain EH4.0 expressing green-fluorescent protein (GFP); assay: microbe, parasite or virus in culture; type: cell-based; conditions: read-out: pIC50 (converted)
[2] = type: physicochemical; conditions: 30 μM; for chemical stability (% by LCMS), DMSO: 0 h; for chemical stability (% by LCMS), ACN/H2O / chemical stability (% by LCMS), ACN/0.1N HCl: 48 h; for chemical stability (% by LCMS), ACN/0.1N HCl: pH 1.6
Procedure: Chemical Stability Testing
Preliminary Protocol • Add 3 μl of a 10 mM DMSO stock solution to 1 ml of the following solvents in a 1.5 ml HPLC vial. • DMSO (reference solution) • H2O/Acetonitril 1/1 (assay solution) • 0.1N HCl/Acetonitril 1/1 (assay solution) • Mix well, […] LCMS • Compare the chromatograms of the two assay solutions with the reference solution and report the additional peaks as degradation peaks

[3] = tested on: Na Ch; assay: CVS Na Ch

SMILES | IC50 ([1]; Test 1 (and/or Test 2)) [nM] | chemical stability (% by LCMS), DMSO [2] [%] | chemical stability (% by LCMS), ACN/H2O [2] [%] | chemical stability (% by LCMS), ACN/0.1N HCl [2] [%] | further results
CCc1nc2ccc(COC)cn2c1C(=O)NCc1ccc(N2CCN(S(=O)(=O)C(F)(F)F)C=N2)cc1 [Compound 43] | 10 | – | – | – | melting point: 169.05 °C
CCc1nc2ncc(C)cn2c1C(=O)NCc1ccc(N2CCN(S(=O)(=O)C(F)(F)F)C(C(C)C)=N2)c(F)c1 [Compound 248] | 0.224 | 92 | 100 | 100 | –
CCc1nc2ncc(Cl)cn2c1C(=O)NCc1ccc(N2CCN(S(=O)(=O)C(F)(F)F)C=N2)cc1 [Compound 13] | – | – | – | – | melting point: 215.87 °C; IC50 [3]: > 10000 nM
CCc1nc2ccc(C)cn2c1C(=O)NCc1ccc(N2CCN(S(=O)(=O)C(F)(F)F)C(C(=O)N(C)C)=N2)cc1 [Compound 259] | – | 98 | 100 | 100 | IC50 [1]: 10.7 nM
CCC1=NN(c2ncc(CNC(=O)c3c(C(F)(F)F)nc4ccccn34)cc2F)CCN1S(=O)(=O)C(F)(F)F [Compound 236] | 6.17 | – | – | – | –
CCc1nc2ccc(Cl)cn2c1C(=O)NCc1ccc(N2CCN(S(=O)(=O)C(F)(F)F)C=N2)c(F)c1 [Compound 9] | – | – | – | – | IC50 [3]: > 10000 nM
CCC1=NN(c2ccc(CNC(=O)c3c(CC)nc4ncc(C)cn34)cc2F)CCN1S(=O)(=O)C(F)(F)F [Compound 234] | 0.324 | 96 | 95 | 97 | –
CC1=NN(c2ccc(CNC(=O)c3c(C(F)(F)F)nc4ccc(C)cn34)cc2F)CCN1S(=O)(=O)C(F)(F)F [Compound 253] | 1.86 | 100 | 100 | 100 | –
CC1=NN(c2ccc(CNC(=O)c3c(C(F)(F)F)nc4ncccn34)cc2F)CCN1S(=O)(=O)C(F)(F)F [Compound 254] | 53.7 | – | – | – | –
Cc1cn2c(C(=O)NCc3ccc(N4CCN(S(=O)(=O)C(F)(F)F)C=N4)c(F)c3)c(C)nc2s1 [Compound 153] | 1.78 | – | – | – | –
CC1=NN(c2ccc(CNC(=O)c3c(C(F)(F)F)nc4ncc(C)cn34)cc2F)CCN1S(=O)(=O)C(F)(F)F [Compound 257] | 6.03 | 99 | 99 | 99 | –
CCc1nc2ccc(C)cn2c1C(=O)NCc1ccc(N2CCN(S(=O)(=O)C(F)(F)F)C(C(=O)OC)=N2)cc1 [Compound 258] | 6.17 | 99 | 99 | 100 | –
CCc1nc2c(F)cc(Cl)cn2c1C(=O)NCc1ccc(N2CCN(S(=O)(=O)C(F)(F)F)C(C3CC3)=N2)c(F)c1 [Compound 231] | 0.891 | 98 | 98 | 98 | –
CCc1nc2ccc(C)cn2c1C(=O)NCc1cnc(N2CCN(S(=O)(=O)C(F)(F)F)C(C(C)C)=N2)c(F)c1 [Compound 246] | 2.63 | – | – | – | –
CCc1nc2cc(C)c(C)cn2c1C(=O)NCc1ccc(N2CCN(S(=O)(=O)C(F)(F)F)C(C(C)C)=N2)c(F)c1 [Compound 241] | 3.47 | 100 | 100 | 100 | –
CCc1nc2nc3c(cn2c1C(=O)NCc1ccc(N2CCN(S(=O)(=O)C(F)(F)F)C=N2)c(F)c1)CCC3 [Compound 154] | 1.7 | – | – | – | –
CCc1nc2c(C)cc(C)cn2c1C(=O)NCc1ccc(N2CCN(S(=O)(=O)C(F)(F)F)C=N2)c(F)c1 [Compound 95] | – | – | – | – | IC50 [1]: 38 nM
O=C(NCc1ccc(N2CCN(S(=O)(=O)C(F)(F)F)C=N2)c(F)c1)c1c(C(F)(F)F)nc2ccc(Cl)cn12 [Compound 124] | 10 | – | – | – | –
COC1=NN(c2ccc(CNC(=O)c3nnc4ccc(Br)cn34)cc2F)CCN1S(=O)(=O)C(F)(F)F [Compound 94] | – | – | – | – | IC50 [1]: 38.9 nM
CCc1nc2ncc(C)cn2c1C(=O)NCc1cnc(N2CCN(S(=O)(=O)C(F)(F)F)C(C)=N2)c(F)c1 [Compound 255] | 6.17 | 100 | 100 | 98 | –
CCc1nc2c(F)cc(Cl)cn2c1C(=O)NCc1ccc(N2CCN(S(=O)(=O)C(F)(F)F)C(C(C)C)=N2)c(F)c1 [Compound 238] | 1.58 | 100 | 100 | 100 | –
COCc1nc2ccc(Cl)cn2c1C(=O)NCc1ccc(N2CCN(S(=O)(=O)C(F)(F)F)C=N2)cc1 [Compound 8] | – | – | – | – | melting point: 167.12 °C; IC50 [1]: 251 nM

SMILES | IC50 ([1]; Test 1 (and/or Test 2)) [nM] | chemical stability (% by LCMS), DMSO [2] [%] | chemical stability (% by LCMS), ACN/H2O [2] [%] | chemical stability (% by LCMS), ACN/0.1N HCl [2] [%] | further results
CC1=NN(c2ccc(CNC(=O)c3c(C(F)(F)F)nc4ccccn34)cc2F)CCN1S(=O)(=O)C(F)(F)F [Compound 252] | 1.2 | 99 | 99 | 99 | –
CCc1nc2ccc(F)cn2c1C(=O)NCc1ccc(N2CCN(S(=O)(=O)C(F)(F)F)C(C3CC3)=N2)cc1 [Compound 227] | 11.5 | – | – | – | –
CC1=NN(c2ncc(CNC(=O)c3c(C(F)(F)F)nc4ccccn34)cc2F)CCN1S(=O)(=O)C(F)(F)F [Compound 256] | 18.6 | – | – | – | –
CCc1nc2sc(Cl)cn2c1C(=O)NCc1ccc(N2CCN(S(=O)(=O)C(F)(F)F)C=N2)c(F)c1 [Compound 135] | 7.24 | – | – | – | –
Cc1ccc2nc(C(F)F)c(C(=O)NCc3ccc(N4CCN(S(=O)(=O)C(F)(F)F)C(C(C)C)=N4)c(F)c3)n2c1 [Compound 240] | 0.603 | 100 | 100 | 100 | –
CCc1nc2cc(C)c(C)cn2c1C(=O)NCc1ccc(N2CCN(S(=O)(=O)C(F)(F)F)C(C(C)C)=N2)cc1 [Compound 245] | 13.8 | – | – | – | –
CCc1nc2ccc(C)cn2c1C(=O)NCc1ccc(N2CCN(S(=O)(=O)C(F)(F)F)C(C(N)=O)=N2)cc1 [Compound 260] | 32.4 | 98 | 100 | 100 | –
CCc1nc2ccc(Cl)cn2c1C(=O)NCc1ccc(N2CCN(S(=O)(=O)C(F)(F)F)C=N2)cc1F [Compound 16] | – | – | – | – | melting point: 158.1 °C; IC50 [3]: > 10000 nM
Cc1ccc2nc(C(F)(F)F)c(C(=O)NCc3ccc(N4CCN(S(=O)(=O)C(F)(F)F)C=N4)c(F)c3)n2c1 [Compound 175] | 1.58 | – | – | – | –
CCc1nc2ccc(Cl)cn2c1C(=O)NCc1ccc(N2CCN(c3nccs3)C(OC)=N2)cc1 [Compound 54] | 11 | – | – | – | melting point: 233.23 °C
CCC1=NN(c2ncc(CNC(=O)c3c(CC)nc4ncc(C)cn34)cc2F)CCN1S(=O)(=O)C(F)(F)F [Compound 235] | 6.31 | 99 | 99 | 98 | –
Cc1cnc2nc(C(F)F)c(C(=O)NCc3ccc(N4CCN(S(=O)(=O)C(F)(F)F)C(C(C)C)=N4)c(F)c3)n2c1 [Compound 249] | 1.86 | – | – | – | –
CCc1nc2ccc(C)cn2c1C(=O)NCc1cnc(N2CCN(S(=O)(=O)C(F)(F)F)C(C3CC3)=N2)c(F)c1 [Compound 232] | 1.51 | – | – | – | –
CCc1nc2ncc(C)cn2c1C(=O)NCc1ccc(N2CCN(S(=O)(=O)C(F)(F)F)C(C)=N2)c(F)c1 [Compound 251] | 0.437 | 100 | 100 | 100 | –
CCc1nc2ccc(OC)cn2c1C(=O)NCc1ccc(N2CCN(S(=O)(=O)C(F)(F)F)C(OC)=N2)cc1 [Compound 36] | 3.98 | – | – | – | melting point: 142.03 °C
CCC1=NN(c2ccc(CNC(=O)c3c(C(F)(F)F)nc4ccccn34)cc2F)CCN1S(=O)(=O)C(F)(F)F [Compound 233] | 1.07 | 99 | 99 | 99 | –
COC1=NN(c2ccc(CNC(=O)c3nnc4ccc(Cl)cn34)cc2F)CCN1S(=O)(=O)C(F)(F)F [Compound 92] | – | – | – | – | IC50 [1]: 53.7 nM
CCc1nc2ncc(Cl)cn2c1C(=O)NCc1cc(F)c(N2CCN(S(=O)(=O)C(F)(F)F)C=N2)c(F)c1 [Compound 47] | 3.16 | – | – | – | melting point: 149.44 °C
CCc1nc2ccc(Cl)cn2c1C(=O)NCc1ccc(N2CCN(S(=O)(=O)C(F)(F)F)C=N2)c(OC)c1 [Compound 25] | 10 | – | – | – | melting point: 125.56 °C
CC(C)C1=NN(c2ccc(CNC(=O)c3c(C(F)(F)F)nc4ccccn34)cc2F)CCN1S(=O)(=O)C(F)(F)F [Compound 247] | 1.38 | 96 | 100 | 100 | –
CCc1nc2c(F)cc(Cl)cn2c1C(=O)NCc1ccc(N2CCN(S(=O)(=O)C(F)(F)F)C(C(C)C)=N2)cc1 [Compound 244] | 4.57 | – | – | – | –
